From PubChem BioAssay AID330 (DTP/NCI, 2004)
Values joined by “and” are separate entries in the source; they are usually repeats but may differ in a detail not shown here. Identical values can stand only once. Toxic doses and inconclusive results are not listed. Rule for the calls: active = survival T/C of 150% or more; inactive = T/C below 125% in these data.

Tested on: P388 leukemia ip, CD2F1 mice, survival T/C
Experiment: NCI In Vivo Anticancer Drug Screen. Data for tumor model P388 Leukemia (intraperitoneal) in CD2F1 (CDF1) mice
Conditions: endpoint: median survival time, higher = longer survival
In short: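 Mice carrying the transplanted tumor received test compound or vehicle. Survival was recorded in each group, and the value is the treated-group measurement divided by that of the vehicle-treated control group.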

[1] = dose: 25.0 mg/kg/injection, schedule: Q01DX005 (ip), vehicle: Klucel (hydroxypropylcellulose) (HPC)
[2] = dose: 6.25 mg/kg/injection, schedule: Q01DX005 (ip), vehicle: Klucel (hydroxypropylcellulose) (HPC)
[3] = dose: 12.5 mg/kg/injection, schedule: Q01DX005 (ip), vehicle: Klucel (hydroxypropylcellulose) (HPC)
[4] = dose: 12.5 mg/kg/injection, schedule: Q01DX005 (ip), vehicle: saline
[5] = dose: 50.0 mg/kg/injection, schedule: Q01DX009 (ip), vehicle: saline with Tween-80
[6] = dose: 200.0 mg/kg/injection, schedule: Q01DX009 (ip), vehicle: saline with Tween-80
[7] = dose: 50.0 mg/kg/injection, schedule: Q01DX005 (ip), vehicle: saline with Tween-80
[8] = dose: 60.0 mg/kg/injection, schedule: Q01DX005 (ip), vehicle: saline
[9] = dose: 120.0 mg/kg/injection, schedule: Q01DX005 (ip), vehicle: saline
[10] = dose: 25.0 mg/kg/injection, schedule: Q01DX009 (ip), vehicle: other
[11] = dose: 100.0 mg/kg/injection, schedule: Q01DX009 (ip), vehicle: saline with Tween-80

Measured: T/C

BrCCC[n+]1ccc2ccccc2c1-c1nccc2ccccc12
inactive: dose: 3.12 mg/kg/injection, schedule: Q01DX001 (ip), vehicle: saline 104 % of control | dose: 6.25 mg/kg/injection, schedule: Q01DX001 (ip), vehicle: saline 98 % of control | dose: 12.5 mg/kg/injection, schedule: Q01DX001 (ip), vehicle: saline 101 % of control and 115 % of control

CCN(CC)CCCC(Nc1c2ccc(Cl)cc2nc2ccc(OC)cc12)c1cccc2ccccc12 (stereo not given)
inactive: dose: 6.0 mg/kg/injection, schedule: Q01DX005 (ip), vehicle: Klucel (hydroxypropylcellulose) (HPC) 103 % of control | dose: 12.0 mg/kg/injection, schedule: Q01DX005 (ip), vehicle: Klucel (hydroxypropylcellulose) (HPC) 106 % of control | [1] 106 % of control

O=C1C(N=Nc2ccc([N+](=O)[O-])cc2)Sc2nc3ccccc3n21 (stereo not given)
inactive: dose: 7.5 mg/kg/injection, schedule: Q01DX005 (ip), vehicle: Klucel (hydroxypropylcellulose) (HPC) 99 % of control | dose: 15.0 mg/kg/injection, schedule: Q01DX005 (ip), vehicle: Klucel (hydroxypropylcellulose) (HPC) 92 % of control | dose: 30.0 mg/kg/injection, schedule: Q01DX005 (ip), vehicle: Klucel (hydroxypropylcellulose) (HPC) 90 % of control

COc1c2c(c3c(c1OC)CN(CC(c1ccccc1)c1ccccc1)CC3)CCC2
inactive: dose: 100.0 mg/kg/injection, schedule: Q04DX002 (ip), vehicle: saline 101 % of control | dose: 200.0 mg/kg/injection, schedule: Q04DX002 (ip), vehicle: saline 103 % of control | dose: 400.0 mg/kg/injection, schedule: Q04DX002 (ip), vehicle: saline 103 % of control

CC(C)(SSC(C)(C)C1NC(=O)NC1=O)C1NC(=O)NC1=O (stereo not given)
inactive: [2] 102 % of control | [3] 99 % of control | [1] 98 % of control

COc1cc(NC(C)CCCN)c2ncc(Br)cc2c1 (stereo not given)
inactive: dose: 6.25 mg/kg/injection, schedule: Q01DX005 (ip), vehicle: saline 95 % of control | [4] 91 % of control

Cc1ccc(NC(=O)Oc2c(C)cc(Cl)cc2C)c([N+](=O)[O-])c1
inactive: [5] 95 % of control | [6] 95 % of control

CC(C)(C)C1=CCN(C(C)(C)/C=N\O)CC1
inactive: dose: 12.5 mg/kg/injection, schedule: Q01DX005 (ip), vehicle: saline with Tween-80 97 % of control | dose: 25.0 mg/kg/injection, schedule: Q01DX005 (ip), vehicle: saline with Tween-80 100 % of control | [7] 100 % of control and 96 % of control

COC(=O)C1(CC(=O)c2ccncc2)NC(=S)NC(=O)C1C#N (stereo not given)
inactive: [8] 99 % of control | [9] 101 % of control | dose: 240.0 mg/kg/injection, schedule: Q01DX005 (ip), vehicle: saline 94 % of control

CCC(CC)NCCCNc1cc(OC)cc2cccnc12
inactive: [4] 108 % of control | dose: 25.0 mg/kg/injection, schedule: Q01DX005 (ip), vehicle: saline 104 % of control

Cc1ccc2c(=O)n3cc(CCC#N)cc3c(=O)[nH]c2c1O
inactive: dose: 100.0 mg/kg/injection, schedule: Q01DX001 (ip), vehicle: Klucel (hydroxypropylcellulose) (HPC) 99 % of control | dose: 200.0 mg/kg/injection, schedule: Q01DX001 (ip), vehicle: Klucel (hydroxypropylcellulose) (HPC) 89 % of control | dose: 400.0 mg/kg/injection, schedule: Q01DX001 (ip), vehicle: Klucel (hydroxypropylcellulose) (HPC) 92 % of control

COc1cc2c(=O)n(C)c3ccccc3c2cc1OC
inactive: [10] 91 % of control | dose: 50.0 mg/kg/injection, schedule: Q01DX009 (ip), vehicle: other 90 % of control | dose: 100.0 mg/kg/injection, schedule: Q01DX009 (ip), vehicle: other 91 % of control | dose: 200.0 mg/kg/injection, schedule: Q01DX009 (ip), vehicle: other 93 % of control | dose: 400.0 mg/kg/injection, schedule: Q01DX009 (ip), vehicle: other 99 % of control

CCOC(=O)C(=CCBr)C(=O)OCC
inactive: dose: 1.56 mg/kg/injection, schedule: Q01DX009 (ip), vehicle: other 105 % of control | dose: 3.13 mg/kg/injection, schedule: Q01DX009 (ip), vehicle: other 110 % of control | dose: 6.25 mg/kg/injection, schedule: Q01DX009 (ip), vehicle: other 118 % of control | dose: 12.5 mg/kg/injection, schedule: Q01DX009 (ip), vehicle: other 106 % of control | [10] 102 % of control

CC(C)Cc1cccc2c1CCCC2
inactive: dose: 50.0 mg/kg/injection, schedule: Q01DX005 (ip), vehicle: suspension in saline 97 % of control | dose: 100.0 mg/kg/injection, schedule: Q01DX005 (ip), vehicle: suspension in saline 97 % of control | dose: 200.0 mg/kg/injection, schedule: Q01DX005 (ip), vehicle: suspension in saline 101 % of control

N#CCSCC(N)C(=O)O (stereo not given)
inactive: [7] 103 % of control | dose: 100.0 mg/kg/injection, schedule: Q01DX005 (ip), vehicle: saline with Tween-80 105 % of control | dose: 200.0 mg/kg/injection, schedule: Q01DX005 (ip), vehicle: saline with Tween-80 105 % of control

C/C(C/C(C)=N/O)=N/O
inactive: dose: 50.0 mg/kg/injection, schedule: Q01DX009 (ip), vehicle: saline 99 % of control | dose: 100.0 mg/kg/injection, schedule: Q01DX009 (ip), vehicle: saline 97 % of control | dose: 200.0 mg/kg/injection, schedule: Q01DX009 (ip), vehicle: saline 91 % of control

CC1=NN(c2ccc(S(=O)(=O)O)cc2)C(=O)/C1=C/c1ccc(Cl)cc1
inactive: dose: 50.0 mg/kg/injection, schedule: Q04DX003 (ip), vehicle: saline sonified 100 % of control | dose: 100.0 mg/kg/injection, schedule: Q04DX003 (ip), vehicle: saline sonified 100 % of control | dose: 200.0 mg/kg/injection, schedule: Q04DX003 (ip), vehicle: saline sonified 95 % of control

Nc1ccccc1Cl
inactive: dose: 31.25 mg/kg/injection, schedule: Q01DX009 (ip), vehicle: saline with Tween-80 95 % of control | dose: 62.5 mg/kg/injection, schedule: Q01DX009 (ip), vehicle: saline with Tween-80 109 % of control | dose: 125.0 mg/kg/injection, schedule: Q01DX009 (ip), vehicle: saline with Tween-80 100 % of control

CC1(C)OC2CC(=O)OCC23C1=C(O)C(=O)C1(C)C3CCC2(C)C(c3ccoc3)OC(=O)C3OC321 (stereo not given)
inactive: dose: 0.5 mg/kg/injection, schedule: Q01DX009 (ip), vehicle: saline + alcohol 101 % of control | dose: 1.0 mg/kg/injection, schedule: Q01DX009 (ip), vehicle: saline + alcohol 104 % of control | dose: 2.0 mg/kg/injection, schedule: Q01DX009 (ip), vehicle: saline + alcohol 106 % of control | dose: 4.0 mg/kg/injection, schedule: Q01DX009 (ip), vehicle: saline + alcohol 106 % of control | dose: 8.0 mg/kg/injection, schedule: Q01DX009 (ip), vehicle: saline + alcohol 101 % of control

CCCCN1C(=O)/C(=C/c2ccco2)SC1=S
inactive: [5] 101 % of control | [11] 104 % of control | [6] 102 % of control

O=C(O)c1c(O)ccc(O)c1C(=O)O
inactive: dose: 60.0 mg/kg/injection, schedule: Q01DX005 (ip), vehicle: saline with Tween-80 101 % of control | dose: 120.0 mg/kg/injection, schedule: Q01DX005 (ip), vehicle: saline with Tween-80 92 % of control | dose: 240.0 mg/kg/injection, schedule: Q01DX005 (ip), vehicle: saline with Tween-80 97 % of control

COc1cc([N+](=O)[O-])c(OC)c2c(=O)[nH]c(=O)[nH]c12
inactive: [2] 98 % of control | [3] 90 % of control

COc1cc2c(C)cc(=O)oc2c(OCC(O)CN2CCCC2)c1OC (stereo not given)
inactive: [8] 96 % of control | [9] 99 % of control

CCOC(=O)Sc1ncnc2nc[nH]c12
inactive: dose: 33.0 mg/kg/injection, schedule: Q01DX009 (ip), vehicle: saline with Tween-80 113 % of control | [5] 122 % of control | dose: 75.0 mg/kg/injection, schedule: Q01DX009 (ip), vehicle: saline with Tween-80 122 % of control | dose: 100.0 mg/kg/injection, schedule: Q04DX003 (ip), vehicle: saline with Tween-80 104 % of control | dose: 200.0 mg/kg/injection, schedule: Q04DX003 (ip), vehicle: saline with Tween-80 108 % of control

O=C(CCCCC(=O)NO)NO
inactive: dose: 50.0 mg/kg/injection, schedule: Q01DX009 (ip), vehicle: Klucel (hydroxypropylcellulose) (HPC) 102 % of control | dose: 100.0 mg/kg/injection, schedule: Q01DX009 (ip), vehicle: Klucel (hydroxypropylcellulose) (HPC) 105 % of control | dose: 200.0 mg/kg/injection, schedule: Q01DX009 (ip), vehicle: Klucel (hydroxypropylcellulose) (HPC) 105 % of control

COc1ccc(NC(=O)NNC(N)=S)cc1
inactive: [5] 96 % of control | [11] 91 % of control
